Active and inactive are the calls of the source. The rule behind the calls is not given here.
Experiments:
G-361 [1] = assay: Induction of apoptosis in human G361 cells assessed as reduction Mcl1 protein levels at 10 uM incubated for 24 hrs by Western blot method; format: functional, cell-based
G-361 [2] = assay: Induction of apoptosis in human G361 cells assessed as reduction total Rb protein levels at 10 uM incubated for 24 hrs by Western blot method; format: functional, cell-based
G-361 [3] = assay: Induction of apoptosis in human G361 cells assessed as induction of caspase-7 degradation in to cleaved fragments at 10 uM incubated for 24 hrs by Western blot method; format: functional, cell-based
G-361 [4] = assay: Induction of cell cycle arrest in human G361 cells assessed as increase in accumulation at G0/G1 phase at 1 uM incubated for 24 hrs by propidium iodide staining based flow cytometry; format: functional
CCRF-CEM = assay: Cytotoxicity in human CEM cells assessed as reduction in cell viability incubated for 72 hrs by calcein AM cytotoxicity assay; format: functional, cell-based; conditions: Homo sapiens, CCRF-CEM, 72 h
G-361 [5] = assay: Induction of apoptosis in human G361 cells assessed as reduction Mcl1 protein levels at 1 uM incubated for 24 hrs by Western blot method; format: functional, cell-based
G-361 [6] = assay: Induction of cell cycle arrest in human G361 cells assessed as increase in accumulation at G0/G1 phase at 10 uM incubated for 24 hrs by propidium iodide staining based flow cytometry; format: functional
G-361 [7] = assay: Induction of apoptosis in human G361 cells assessed as induction of caspase-3 expression at 10 uM incubated for 24 hrs by Western blot method; format: functional, cell-based
G-361 [8] = assay: Induction of apoptosis in human G361 cells assessed as induction of caspase-3 expression at 1 uM incubated for 24 hrs by Western blot method; format: functional, cell-based
G-361 [9] = assay: Cytotoxicity in human G361 cells assessed as reduction in cell viability incubated for 72 hrs by calcein AM cytotoxicity assay; format: functional, cell-based; conditions: Homo sapiens, G-361, 72 h
HeLa = assay: Cytotoxicity in human HeLa cells assessed as reduction in cell viability incubated for 72 hrs by calcein AM cytotoxicity assay; format: functional, cell-based; conditions: Homo sapiens, HeLa, 72 h
G-361 [10] = assay: Induction of apoptosis in human G361 cells assessed as increase in caspase3/7 activity at 1 uM using Ac-DEVD-AMC substrate incubated for 24 hrs by fluorometric assay relative to untreated control; format: functional
G-361 [11] = assay: Induction of apoptosis in human G361 cells assessed as induction of PARP cleavage at 10 uM incubated for 24 hrs by Western blot method; format: functional, cell-based
BJ = assay: Cytotoxicity in human BJ cells assessed as reduction in cell viability incubated for 72 hrs by calcein AM cytotoxicity assay; format: functional, cell-based; conditions: Homo sapiens, BJ, 72 h
G-361 [12] = assay: Induction of apoptosis in human G361 cells assessed as increase in caspase3/7 activity at 10 uM using Ac-DEVD-AMC substrate incubated for 24 hrs by fluorometric assay relative to untreated control; format: functional
G-361 [13] = assay: Induction of cell cycle arrest in human G361 cells assessed as increase in accumulation at subG1 phase at 1 uM incubated for 24 hrs by propidium iodide staining based flow cytometry; format: functional
G-361 [14] = assay: Induction of apoptosis in human G361 cells assessed as effect on Bcl2 protein levels at 1 uM incubated for 24 hrs by Western blot method; format: functional, cell-based
MCF7 = assay: Cytotoxicity in human MCF7 cells assessed as reduction in cell viability incubated for 72 hrs by calcein AM cytotoxicity assay; format: functional, cell-based; conditions: Homo sapiens, MCF7, 72 h
G-361 [15] = assay: Induction of cell cycle arrest in human G361 cells assessed as increase in accumulation at subG1 phase at 10 uM incubated for 24 hrs by propidium iodide staining based flow cytometry; format: functional
G-361 [16] = assay: Induction of apoptosis in human G361 cells assessed as effect on Bcl2 protein levels at 10 uM incubated for 24 hrs by Western blot method; format: functional, cell-based
G-361 [17] = assay: Induction of cell cycle arrest in human G361 cells assessed as reduction in accumulation at G2M phase at 10 uM incubated for 24 hrs by propidium iodide staining based flow cytometry; format: functional
G-361 [18] = assay: Induction of cell cycle arrest in human G361 cells assessed as reduction in accumulation at G2M phase at 1 uM incubated for 24 hrs by propidium iodide staining based flow cytometry; format: functional
G-361 [19] = assay: Induction of apoptosis in human G361 cells assessed as induction of caspase-7 degradation in to cleaved fragments at 1 uM incubated for 24 hrs by Western blot method; format: functional, cell-based

| Structure (SMILES) | Activity (G-361 [1]) | Activity (G-361 [2]) | Activity (G-361 [3]) | Activity (G-361 [4]) | IC50 (CCRF-CEM) [µM] | Activity (G-361 [5]) | Activity (G-361 [6]) | Activity (G-361 [7]) | Activity (G-361 [8]) | IC50 (G-361 [9]) [µM] | IC50 (HeLa) [µM] | Activity (G-361 [11]) | IC50 (BJ) [µM] | Activity (G-361 [13]) | Activity (G-361 [14]) | IC50 (MCF7) [µM] | Activity (G-361 [15]) | Activity (G-361 [16]) | Activity (G-361 [17]) | Activity (G-361 [18]) | other results |
| --- | --- | --- | --- | --- | --- | --- | --- | --- | --- | --- | --- | --- | --- | --- | --- | --- | --- | --- | --- | --- | --- |
| C=C(C)[C@@H]1CC[C@]2(C(=O)O[C@@H]3O[C@H](COC(C)=O)[C@H](OC(C)=O)[C@H](OC(C)=O)[C@H]3OC(C)=O)CC[C@]3(C)[C@H](CC[C@@H]4[C@@]5(C)CC[C@H](O)C(C)(C)[C@@H]5CC[C@]43C)[C@@H]12 | Active | Active | Active | Active | 9 | Active | Active | inactive | inactive | 3.4 | 3.3 | Active | > 50 | Active | inactive | 2.5 | Active | inactive | Active | Active | Activity (G-361 [10]): inactive; Activity (G-361 [12]): inactive; Activity (G-361 [19]): Active |
| CC(=O)O[C@H]1CC[C@]2(C)[C@H]3CC[C@@H]4C5=C(C(C)C)C(=O)C[C@]5(C(=O)OCC(=O)OCc5ccccc5)CC[C@@]4(C)[C@]3(C)CC[C@H]2C1(C)C | Active | Active | Active | Active | 6 | Active | Active | inactive | inactive | 1.6 | 2.8 | Active | > 50 | Active | inactive | 1.8 | Active | inactive | Active | Active | fold change (FC) (G-361 [10]): 3; Activity (G-361 [19]): Active |

From ChEMBL document CHEMBL4190365, “Synthesis and antiproliferative properties of new hydrophilic esters of triterpenic acids” (Eur J Med Chem, 2017)
